Assay results published in ChEMBL document CHEMBL1201862, “PubChem BioAssay data set” (2004).
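1) Cells in 96-well plates. 2) Compound, 48 h, 5 concentrations. 3) Linear interpolation between surrounding doses. 4) Unreached endpoint = highest concentration. The concentration for 50% growth inhibition is given as GI50.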 Active and inactive are the calls of the source. Cut-off read from the data, not from the text of the source: active = GI50 up to about 1.1 µM and inactive = higher.

Assays:
Test in all cases: NCI anticancer screen, dose series, 48 h
NCI-H226 = test system: NCI-H226
HL-60 = test system: HL-60
LOX IMVI = test system: LOX IMVI
A498 = test system: A498
HCT-15 = test system: HCT-15
SK-OV-3 = test system: SK-OV-3
OVCAR-3 = test system: OVCAR-3
RPMI-8226 = test system: RPMI-8226
ACHN = test system: ACHN
KM12 = test system: KM12
HCT-116 = test system: HCT-116
CAKI-1 = test system: CAKI-1
SF-539 = test system: SF-539
K562 = test system: K562
NCI-H460 = test system: NCI-H460
U-251 = test system: U-251
Malme-3M = test system: Malme-3M
SW-620 = test system: SW-620

Which GI50 (NCI-H226) does the source give for CCOC(=O)CCC1(C(=O)OCC)CCCC1=O (stereo unspecified) here?
The GI50 was > 100 µM (inactive).

What about the GI50 (HL-60) of the same compound?
The GI50 was > 100 µM (inactive).

What about the GI50 (LOX IMVI) of the same compound?
The GI50 was 47.6 µM (inactive).

What about the GI50 (A498) of the same compound?
Its GI50 is > 100 µM (inactive).

What about the GI50 (HCT-15) of the same compound?
Its GI50 is 78.3 µM.

What about the GI50 (SK-OV-3) of the same compound?
The GI50 was > 100 µM (inactive).

And the GI50 (OVCAR-3)?
Its GI50 is > 100 µM (inactive).

And the GI50 (RPMI-8226)?
The GI50 was 34.4 µM (inactive).

What about the GI50 (ACHN) of the same compound?
Its GI50 is > 100 µM (inactive).

What about the GI50 (KM12) of the same compound?
The GI50 was > 100 µM (inactive).

And the GI50 (HCT-116)?
The GI50 was 68.4 µM (inactive).

What about the GI50 (CAKI-1) of the same compound?
Its GI50 is > 100 µM (inactive).

And the GI50 (SF-539)?
The GI50 was > 100 µM (inactive).

And the GI50 (K562)?
The GI50 was > 100 µM (inactive).

And the GI50 (NCI-H460)?
Its GI50 is > 100 µM (inactive).

What about the GI50 (U-251) of the same compound?
The GI50 was > 100 µM (inactive).

And the GI50 (Malme-3M)?
Its GI50 is > 100 µM (inactive).

What does the source list for CS(=O)(=O)N(CCC#N)c1ccc(C=O)cc1?
GI50 (NCI-H226): > 100 µM (inactive); GI50 (HL-60): > 100 µM (inactive); GI50 (LOX IMVI): > 100 µM (inactive); GI50 (A498): > 100 µM (inactive); GI50 (HCT-15): > 100 µM; GI50 (SK-OV-3): > 100 µM (inactive); GI50 (SW-620): > 100 µM (inactive); GI50 (OVCAR-3): > 100 µM (inactive); GI50 (RPMI-8226): > 100 µM (inactive); GI50 (ACHN): > 100 µM (inactive); GI50 (KM12): > 100 µM (inactive); GI50 (HCT-116): > 100 µM (inactive); GI50 (CAKI-1): > 100 µM (inactive); GI50 (SF-539): > 100 µM (inactive); GI50 (K562): > 100 µM (inactive); GI50 (NCI-H460): > 100 µM (inactive); GI50 (U-251): > 100 µM (inactive); GI50 (Malme-3M): > 100 µM (inactive)

For O=C(O)Cc1cc(=O)oc2cc(O)c(Cl)cc12, which GI50 (NCI-H226) is on record?
Its GI50 is > 100 µM (inactive).

And the GI50 (HL-60)?
Its GI50 is > 100 µM (inactive).

What about the GI50 (LOX IMVI) of the same compound?
Its GI50 is > 100 µM (inactive).

And the GI50 (A498)?
The GI50 was > 100 µM (inactive).

And the GI50 (HCT-15)?
Its GI50 is over 100 µM.

What about the GI50 (SK-OV-3) of the same compound?
The GI50 was > 100 µM (inactive).

What about the GI50 (SW-620) of the same compound?
Its GI50 is > 100 µM (inactive).

And the GI50 (OVCAR-3)?
Its GI50 is > 100 µM (inactive).

And the GI50 (RPMI-8226)?
The GI50 was > 100 µM (inactive).

What about the GI50 (ACHN) of the same compound?
The GI50 was > 100 µM (inactive).

And the GI50 (KM12)?
The GI50 was > 100 µM (inactive).

What about the GI50 (HCT-116) of the same compound?
The GI50 was > 100 µM (inactive).

What about the GI50 (CAKI-1) of the same compound?
The GI50 was > 100 µM (inactive).

What about the GI50 (SF-539) of the same compound?
Its GI50 is > 100 µM (inactive).

And the GI50 (K562)?
Its GI50 is > 100 µM (inactive).

What about the GI50 (NCI-H460) of the same compound?
The GI50 was > 100 µM (inactive).

What about the GI50 (U-251) of the same compound?
Its GI50 is > 100 µM (inactive).

What about the GI50 (Malme-3M) of the same compound?
The GI50 was > 100 µM (inactive).

Which GI50 (NCI-H226) does the source give for O=C(/C=C/c1c(O)ccc2ccccc12)c1ccc2ccccc2c1 here?
Its GI50 is > 100 µM (inactive).

What about the GI50 (HL-60) of the same compound?
Its GI50 is > 100 µM (inactive).

And the GI50 (LOX IMVI)?
Its GI50 is > 100 µM (inactive).

What about the GI50 (A498) of the same compound?
Its GI50 is > 100 µM (inactive).

What about the GI50 (HCT-15) of the same compound?
The GI50 was over 100 µM.

And the GI50 (SK-OV-3)?
The GI50 was > 100 µM (inactive).

What about the GI50 (SW-620) of the same compound?
Its GI50 is > 100 µM (inactive).

And the GI50 (OVCAR-3)?
The GI50 was > 100 µM (inactive).

And the GI50 (RPMI-8226)?
Its GI50 is > 100 µM (inactive).

And the GI50 (ACHN)?
Its GI50 is > 100 µM (inactive).

What about the GI50 (KM12) of the same compound?
The GI50 was > 100 µM (inactive).

What about the GI50 (HCT-116) of the same compound?
Its GI50 is > 100 µM (inactive).

What about the GI50 (CAKI-1) of the same compound?
Its GI50 is > 100 µM (inactive).

And the GI50 (SF-539)?
Its GI50 is > 100 µM (inactive).

What about the GI50 (K562) of the same compound?
The GI50 was > 100 µM (inactive).

And the GI50 (NCI-H460)?
The GI50 was > 100 µM (inactive).

What about the GI50 (U-251) of the same compound?
Its GI50 is > 100 µM (inactive).

What about the GI50 (Malme-3M) of the same compound?
The GI50 was > 100 µM (inactive).

Which GI50 (NCI-H226) does the source give for CC1(O)CCn2c(=O)c3cc4ccccc4cc3c(=O)n2C1O (stereo unspecified) here?
The GI50 was > 100 µM (inactive).

And the GI50 (HL-60)?
Its GI50 is > 100 µM (inactive).

What about the GI50 (LOX IMVI) of the same compound?
The GI50 was > 100 µM (inactive).

And the GI50 (HCT-15)?
Its GI50 is over 100 µM.

What about the GI50 (SK-OV-3) of the same compound?
Its GI50 is > 100 µM (inactive).

And the GI50 (SW-620)?
Its GI50 is > 100 µM (inactive).

What about the GI50 (OVCAR-3) of the same compound?
Its GI50 is > 100 µM (inactive).

What about the GI50 (RPMI-8226) of the same compound?
Its GI50 is > 100 µM (inactive).

What about the GI50 (ACHN) of the same compound?
Its GI50 is > 100 µM (inactive).

What about the GI50 (KM12) of the same compound?
The GI50 was > 100 µM (inactive).

And the GI50 (HCT-116)?
The GI50 was > 100 µM (inactive).

What about the GI50 (CAKI-1) of the same compound?
Its GI50 is > 100 µM (inactive).

What about the GI50 (SF-539) of the same compound?
Its GI50 is > 100 µM (inactive).

And the GI50 (K562)?
Its GI50 is > 100 µM (inactive).

What about the GI50 (NCI-H460) of the same compound?
The GI50 was > 100 µM (inactive).

And the GI50 (U-251)?
Its GI50 is > 100 µM (inactive).

And the GI50 (Malme-3M)?
The GI50 was > 100 µM (inactive).

Which GI50 (HL-60) does the source give for NN=C1/C(=C\c2ccccc2)CCC/C1=C/c1ccccc1 here?
The GI50 was 20.3 µM (inactive).

And the GI50 (LOX IMVI)?
The GI50 was 26.2 µM (inactive).

What about the GI50 (A498) of the same compound?
The GI50 was 29.6 µM (inactive).

And the GI50 (HCT-15)?
Its GI50 is 36.7 µM.

And the GI50 (SK-OV-3)?
The GI50 was > 100 µM (inactive).

What about the GI50 (SW-620) of the same compound?
Its GI50 is 42.5 µM (inactive).

What about the GI50 (OVCAR-3) of the same compound?
Its GI50 is 32.3 µM (inactive).

And the GI50 (RPMI-8226)?
The GI50 was 16.4 µM (inactive).

What about the GI50 (ACHN) of the same compound?
The GI50 was 27.4 µM (inactive).

And the GI50 (KM12)?
The GI50 was 34.1 µM (inactive).

What about the GI50 (HCT-116) of the same compound?
Its GI50 is 30.8 µM (inactive).

And the GI50 (SF-539)?
Its GI50 is 24.4 µM (inactive).

What about the GI50 (K562) of the same compound?
Its GI50 is 20.4 µM (inactive).

What about the GI50 (NCI-H460) of the same compound?
Its GI50 is 32 µM (inactive).

What about the GI50 (U-251) of the same compound?
Its GI50 is 34.9 µM (inactive).

What about the GI50 (Malme-3M) of the same compound?
The GI50 was 22.4 µM (inactive).

Which GI50 (HL-60) does the source give for Cc1nc(C(N)=O)c(N)n1CCN1CCN(C(=O)CCCCCCCCCCNC2NC=Nc3[nH]cnc32)CC1 (stereo unspecified) here?
Its GI50 is 15.2 µM (inactive).

And the GI50 (LOX IMVI)?
Its GI50 is 33.1 µM (inactive).

And the GI50 (A498)?
Its GI50 is > 100 µM (inactive).

What about the GI50 (HCT-15) of the same compound?
The GI50 was over 100 µM.

And the GI50 (SK-OV-3)?
The GI50 was > 100 µM (inactive).

And the GI50 (SW-620)?
The GI50 was > 100 µM (inactive).

What about the GI50 (OVCAR-3) of the same compound?
Its GI50 is 45.9 µM (inactive).

What about the GI50 (ACHN) of the same compound?
The GI50 was 29.4 µM (inactive).

What about the GI50 (KM12) of the same compound?
The GI50 was 41 µM (inactive).

What about the GI50 (HCT-116) of the same compound?
The GI50 was 43.4 µM (inactive).

And the GI50 (CAKI-1)?
The GI50 was > 10 µM (inactive).

What about the GI50 (SF-539) of the same compound?
The GI50 was > 100 µM (inactive).

And the GI50 (K562)?
The GI50 was 13.2 µM (inactive).

What about the GI50 (NCI-H460) of the same compound?
Its GI50 is 32.7 µM (inactive).

What about the GI50 (U-251) of the same compound?
The GI50 was > 100 µM (inactive).

And the GI50 (Malme-3M)?
The GI50 was 31.2 µM (inactive).

Which results are given for COc1ccc(/C=C2\CCCC(C(NO)c3ccc(OC)cc3)C2=NO)cc1 (stereo unspecified)?
GI50 (HL-60): 16.2 µM (inactive); GI50 (A498): 36.1 µM (inactive); GI50 (HCT-15): 35.6 µM; GI50 (SK-OV-3): > 100 µM (inactive); GI50 (SW-620): 44.3 µM (inactive); GI50 (OVCAR-3): 47.3 µM (inactive); GI50 (RPMI-8226): 28.8 µM (inactive); GI50 (ACHN): 41.6 µM (inactive); GI50 (KM12): 89.5 µM (inactive); GI50 (HCT-116): 35.8 µM (inactive); GI50 (CAKI-1): 49 µM (inactive); GI50 (SF-539): 27.5 µM (inactive); GI50 (K562): 35.4 µM (inactive); GI50 (NCI-H460): 59.8 µM (inactive); GI50 (U-251): 62.5 µM (inactive); GI50 (Malme-3M): 34.1 µM (inactive)
